Measured values reported in PubChem BioAssay AID2060349 (Molecular Pharmacology Branch, DTP, NCI, 2025).

System: 762968-020-R-J2-PDC spheroids viability
Assay: Anticancer human tumor 762968-020-R-J2-PDC patient-derived colon carcinoma cell line growth inhibition [TAK]
Conditions: spheroids with HUVEC and MSC; for IC50: curve of first compound; for viability, T/C: stronger effect = lower value
Summary of the method: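 Spheroids of 60% malignant cells, 25% HUVEC and 15% hMSC were exposed to targeted agents combined with TAK-243 or ipatasertib. Concentrations started at or near clinical Cmax (10 microM if unknown) and descended in half-log steps.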

[1] = second compound 0.3 µM, first compound 0.0316 µM
[2] = second compound 0.3 µM, first compound 0.1 µM
[3] = second compound 0.3 µM, first compound 0.316 µM
[4] = second compound 0.3 µM, first compound 1 µM
[5] = second compound 0.949 µM, first compound 0.0316 µM
[6] = second compound 0.949 µM, first compound 0.1 µM
[7] = second compound 0.949 µM, first compound 0.316 µM
[8] = second compound 0.949 µM, first compound 1 µM
[9] = second compound 3 µM, first compound 0.0316 µM
[10] = second compound 3 µM, first compound 0.1 µM
[11] = second compound 3 µM, first compound 0.316 µM
[12] = second compound 3 µM, first compound 1 µM
[13] = second compound 9.49 µM, first compound 0.0316 µM
[14] = second compound 9.49 µM, first compound 0.1 µM
[15] = second compound 9.49 µM, first compound 0.316 µM
[16] = second compound 9.49 µM, first compound 1 µM
[17] = second compound 30 µM, first compound 0.0316 µM
[18] = second compound 30 µM, first compound 0.1 µM
[19] = second compound 30 µM, first compound 0.316 µM
[20] = second compound 30 µM, first compound 1 µM
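Also: spheroids exposed to drug for 7 days before readout.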
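For viability, T/C in this document: 100% = DMSO vehicle control wells.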

Structure (SMILES)	IC50 (second compound 0.3 µM) [µM]	IC50 (second compound 0.949 µM) [µM]	IC50 (second compound 3 µM) [µM]	IC50 (second compound 9.49 µM) [µM]	IC50 (second compound 30 µM) [µM]	viability, T/C [1] [%]	viability, T/C [2] [%]	viability, T/C [3] [%]	viability, T/C [4] [%]	viability, T/C [5] [%]	viability, T/C [6] [%]	viability, T/C [7] [%]	viability, T/C [8] [%]	viability, T/C [9] [%]	viability, T/C [10] [%]	viability, T/C [11] [%]	viability, T/C [12] [%]	viability, T/C [13] [%]	viability, T/C [14] [%]	viability, T/C [15] [%]	further results
COc1c(OCCCN2CCOCC2)ccc2c3n(c(=NC(=O)c4cnc(N)nc4)nc12)CCN3 + CC(C)NCC(C(=O)N1CCN(c2ncnc3c2C(C)CC3O)CC1)c1ccc(Cl)cc1	> 1	> 1	> 1	> 1	> 1	89.3	85.1	69.4	66.8	94	84.7	71.3	70	98.3	89.9	71.6	60.2	88.6	85	78	viability, T/C (second compound 0.3 µM, first compound 0.00316 µM): 95.4%; viability, T/C (second compound 0.3 µM, first compound 0.01 µM): 101%; viability, T/C (second compound 0.949 µM, first compound 0.00316 µM): 101%; viability, T/C (second compound 0.949 µM, first compound 0.01 µM): 96.7%; viability, T/C (second compound 3 µM, first compound 0.00316 µM): 105%; viability, T/C (second compound 3 µM, first compound 0.01 µM): 100%; viability, T/C (second compound 9.49 µM, first compound 0.00316 µM): 102%; viability, T/C (second compound 9.49 µM, first compound 0.01 µM): 94.7%; viability, T/C [16]: 67%; viability, T/C (second compound 30 µM, first compound 0.00316 µM): 91.8%; viability, T/C (second compound 30 µM, first compound 0.01 µM): 81.3%; viability, T/C [17]: 79.4%; viability, T/C [18]: 69.5%; viability, T/C [19]: 68.7%; viability, T/C [20]: 59.1%
Cc1nc(NC(=O)N2CCCC2C(N)=O)sc1-c1ccnc(C(C)(C)C(F)(F)F)c1 (stereo not given) + CC(C)NCC(C(=O)N1CCN(c2ncnc3c2C(C)CC3O)CC1)c1ccc(Cl)cc1	> 10	> 10	> 10	> 10	> 10	119	109	99.4	92.5	113	111	97.2	102	108	109	108	102	110	108	105	viability, T/C (second compound 0.3 µM, first compound 3.16 µM): 98.8%; viability, T/C (second compound 0.3 µM, first compound 10 µM): 89.7%; viability, T/C (second compound 0.949 µM, first compound 3.16 µM): 99.5%; viability, T/C (second compound 0.949 µM, first compound 10 µM): 94.6%; viability, T/C (second compound 3 µM, first compound 3.16 µM): 94.4%; viability, T/C (second compound 3 µM, first compound 10 µM): 99.7%; viability, T/C [16]: 106%; viability, T/C (second compound 9.49 µM, first compound 3.16 µM): 94%; viability, T/C (second compound 9.49 µM, first compound 10 µM): 89.6%; viability, T/C [17]: 78.6%; viability, T/C [18]: 81.5%; viability, T/C [19]: 81.8%; viability, T/C [20]: 75.7%; viability, T/C (second compound 30 µM, first compound 3.16 µM): 74.3%; viability, T/C (second compound 30 µM, first compound 10 µM): 69.8%
